According to patent US20260285866A1, “MODULATORS OF TRPML, THEIR COMPOSITIONS AND METHODS OF USE” (Caraway Therapeutics, Inc., priority 2024, published 2026):

How the values were obtained:
Assay type in all cases: cell-based
Human TRPML2 = target: T1, Human TRPML2 (Homo sapiens, UniProt Q8IZK6); assay: Fluorescent TRPML2 assay (as for TRPML1); settings: fluorescent calcium assay as for TRPML1, TRPML2 subtype
T1 construct: expressed in transfected cells
T1 sequence (Q8IZK6 1-566): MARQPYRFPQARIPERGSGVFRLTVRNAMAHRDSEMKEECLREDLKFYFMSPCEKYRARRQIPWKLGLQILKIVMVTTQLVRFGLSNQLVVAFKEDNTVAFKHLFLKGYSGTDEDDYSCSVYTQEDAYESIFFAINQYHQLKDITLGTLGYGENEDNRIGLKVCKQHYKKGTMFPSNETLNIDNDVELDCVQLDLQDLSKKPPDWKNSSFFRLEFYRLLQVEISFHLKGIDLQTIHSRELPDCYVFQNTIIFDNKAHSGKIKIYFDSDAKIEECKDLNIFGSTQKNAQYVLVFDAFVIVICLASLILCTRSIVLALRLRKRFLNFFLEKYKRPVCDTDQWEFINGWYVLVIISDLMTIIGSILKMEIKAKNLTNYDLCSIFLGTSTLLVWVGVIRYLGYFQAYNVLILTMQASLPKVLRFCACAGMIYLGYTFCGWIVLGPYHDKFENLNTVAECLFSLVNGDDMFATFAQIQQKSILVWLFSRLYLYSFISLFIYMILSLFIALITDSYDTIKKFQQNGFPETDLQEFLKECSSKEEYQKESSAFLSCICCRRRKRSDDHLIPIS
Procedure: (§1) HEK-293 Trex cells were stably transfected with a construct consisting of the human coding sequence for TRPML1 cloned into the tet-inducible plasmid pCDNA5 T/O. Mutations were introduced into the TRPML1 sequence to facilitate expression on the cell surface (Silvia Vergarajauregui, Rosa Puertollano Traffic. 2006 March; 7(3): 337-353). Briefly, the cells are cultured in 150 mm round tissue culture dishes containing 20 mL of media. The day before the assay the cells are rinsed with DPBS-Ca-Mg and then treated briefly with Trypsin-EDTA. The Trypsin-EDTA is diluted with growth media, and cells are counted. 38×10^6 cells are re-plated into 150 mm round tissue culture dishes in media containing 0.5 μg/mL doxycycline to induce expression of hTRPML1.
(§2) The day of the experiment cells are lifted from the plates as above and collected by centrifugation. The cells are then suspended in dye loading buffer consisting of Ringer's solution supplemented with 0.1% Pluronic Acid and 1 micromolar Fluo4-AM dye. Cells are loaded for ~60 minutes in the dark with occasional mixing. The cells are collected by centrifugation, the loading media aspirated, and the cells resuspended in 25 mL Ringer's solution and incubated ~60 minutes in the dark. The cells are again collected by centrifugation, rinsed in Ringer's Solution and resuspended to 0.2×10^6 cells/mL in modified Ringer's solution containing 10 mM calcium.
(§3) Compounds are dissolved to a concentration of 10 millimolar with DMSO. Compound plates are created by dispensing compounds into 384 well black wall clear bottom plates (Greiner 781091). Positive and negative controls are included on each plate. Typically, different amounts of each compound are tested ranging from 100 nanoMoles (20 micromolar final concentration) decreasing in half-log steps to 31 picoMoles (6 nanomolar final concentration). Each concentration is typically tested in triplicate.
(§4) 50 microliters of dye-loaded cells are dispensed into each well of the compound assay plate created above. The fluorescence in each well is then determined with an excitation wavelength of 480 nm and an emission wavelength of 540 nm using either a Molecular Devices SpectraMax multimode plate reader or a Hamamatsu FDSS/uCell plate imager.
(§5) The resulting fluorescence for each well is exported as an ascii file and loaded into our LIMS for analysis. The percent activity of each compound at each concentration is determined by comparison to the positive and negative control wells included in each plate.
(§6) Assays for TRPML2 and TRPML3 were performed as above for TRPML1, by substituting the appropriate TRPML2 or TRPML3 subtype for the TRPML1.
(§7) EC50 values were calculated using a non-linear regression of Prism. In the table, “A” indicates an EC50 of less than 100 nM, “B” indicates an EC50 range from 100 nM to 500 nM: “C” indicates an EC50 range from 500 nM to 2 μM; and “D” indicates an EC50 greater than 2 μM.

Human TRPML3 = target: T2, Human TRPML3 (Homo sapiens, UniProt Q8TDD5); assay: Fluorescent TRPML3 assay (as for TRPML1); settings: fluorescent calcium assay as for TRPML1, TRPML3 subtype
T2 construct: expressed in transfected cells
T2 sequence (Q8TDD5 1-553): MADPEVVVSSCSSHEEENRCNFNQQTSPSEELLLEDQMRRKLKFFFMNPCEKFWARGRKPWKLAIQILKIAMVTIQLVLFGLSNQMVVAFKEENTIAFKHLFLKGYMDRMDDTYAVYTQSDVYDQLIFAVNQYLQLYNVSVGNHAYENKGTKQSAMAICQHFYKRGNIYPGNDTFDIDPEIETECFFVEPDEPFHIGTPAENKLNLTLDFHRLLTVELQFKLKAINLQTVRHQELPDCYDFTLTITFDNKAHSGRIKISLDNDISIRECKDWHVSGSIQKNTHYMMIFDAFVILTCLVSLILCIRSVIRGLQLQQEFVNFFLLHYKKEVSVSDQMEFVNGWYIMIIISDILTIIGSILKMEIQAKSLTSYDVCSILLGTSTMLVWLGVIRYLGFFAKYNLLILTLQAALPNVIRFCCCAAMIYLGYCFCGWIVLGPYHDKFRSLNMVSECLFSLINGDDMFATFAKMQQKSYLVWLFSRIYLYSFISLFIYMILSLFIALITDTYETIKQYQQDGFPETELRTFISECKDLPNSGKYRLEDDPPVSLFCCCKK
Procedure: as §1, §2, §3, §4, §5, §6, §7

Human TRPML1 = Human TRPML1 (Homo sapiens, UniProt Q9GZU1, L15A/L16A/L577A/L578A); assay: Fluorescent TRPML1 assay (Fluo4-AM, HEK-293 Trex cells expressing hTRPML1); settings: fluorescent calcium assay, doxycycline-induced hTRPML1
Procedure: Example 27. Fluorescent TRPML Assays
as §1, §2, §3, §4, §5, §7

Chain of Human TRPML1 (Q9GZU1 whole entry L15A/L16A/L577A/L578A): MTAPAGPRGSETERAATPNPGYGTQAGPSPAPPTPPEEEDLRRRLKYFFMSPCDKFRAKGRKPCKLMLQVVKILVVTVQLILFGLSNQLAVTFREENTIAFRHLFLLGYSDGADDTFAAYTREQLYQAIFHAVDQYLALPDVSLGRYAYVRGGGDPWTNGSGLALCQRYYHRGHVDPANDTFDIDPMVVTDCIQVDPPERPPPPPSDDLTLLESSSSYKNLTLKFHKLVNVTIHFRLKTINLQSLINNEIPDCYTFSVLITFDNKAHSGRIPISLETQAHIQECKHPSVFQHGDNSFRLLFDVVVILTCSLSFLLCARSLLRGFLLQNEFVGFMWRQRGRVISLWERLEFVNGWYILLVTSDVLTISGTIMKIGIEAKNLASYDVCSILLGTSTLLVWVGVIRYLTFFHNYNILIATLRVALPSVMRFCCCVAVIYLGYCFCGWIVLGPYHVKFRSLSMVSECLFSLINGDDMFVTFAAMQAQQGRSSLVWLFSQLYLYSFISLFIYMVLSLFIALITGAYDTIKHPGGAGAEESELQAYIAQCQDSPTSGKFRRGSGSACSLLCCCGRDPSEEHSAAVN

Row | SMILES | EC50 (Human TRPML2) [nM] | EC50 (Human TRPML3) [nM] | EC50 (Human TRPML1) [nM]
1 | C[C@@H]1CN(c2ncnc3c2c(-c2ccccc2F)cn3-c2cc(C#N)ccn2)[C@@H](C)CN1C(=O)C1(O)CCCC1 [Compound 121, 2-(5-(2-fluorophenyl)-4-((2S,5R)-4-(1-hydroxycyclopentane-1-carbonyl)-2,5-dimethylpiperazin-1-yl)-7H-pyrrolo[2,3-d]pyrimidin-7-yl)isonicotinonitrile] | 500 to 2000 | < 100 | < 100
2 | C[C@@H]1CN(c2ncnc3c2c(-c2ccncc2)cn3-c2cccc(C#N)c2)[C@@H](C)CN1C(=O)C(C)(C)O [Compound 135, 3-(4-((2S,5R)-4-(2-hydroxy-2-methylpropanoyl)-2,5-dimethylpiperazin-1-yl)-5-(pyridin-4-yl)-7H-pyrrolo[2,3-d]pyrimidin-7-yl)benzonitrile] | > 2000 | > 2000 | 500 to 2000
3 | CCC(O)(CC)C(=O)N1C[C@H](C)N(c2ncnc3c2c(-c2ccccc2)cn3-c2cc(C#N)ccn2)C[C@H]1C [Compound 108, 2-(4-((2S,5R)-4-(2-ethyl-2-hydroxybutanoyl)-2,5-dimethylpiperazin-1-yl)-5-phenyl-7H-pyrrolo[2,3-d]pyrimidin-7-yl)isonicotinonitrile] | 500 to 2000 | 100 to 500 | < 100
4 | C[C@@H]1CN(c2ncnc3c2c(-n2cccn2)cn3-c2cc(C#N)ccn2)[C@@H](C)CN1C(=O)C(C)(C)O [Compound 133, 2-(4-((2S,5R)-4-(2-hydroxy-2-methylpropanoyl)-2,5-dimethylpiperazin-1-yl)-5-(1H-pyrazol-1-yl)-7H-pyrrolo[2,3-d]pyrimidin-7-yl)isonicotinonitrile] | > 2000 | 500 to 2000 | 500 to 2000
5 | C[C@@H]1CN(c2ncnc3c2c(-c2ccncc2)cn3-c2cccc(F)c2)[C@@H](C)CN1C(=O)C(C)(C)O [Compound 139, 1-((2R,5S)-4-(7-(3-fluorophenyl)-5-(pyridin-4-yl)-7H-pyrrolo[2,3-d]pyrimidin-4-yl)-2,5-dimethylpiperazin-1-yl)-2-hydroxy-2-methylpropan-1-one] |  | > 2000 | > 2000
6 | C[C@H]1CN(C(=O)C2(O)CCC2)CCN1c1ncnc2c1c(-c1ccccc1)cn2-c1cc(C#N)ccn1 [Compound 118, (S)-2-(4-(4-(1-hydroxycyclobutane-1-carbonyl)-2-methylpiperazin-1-yl)-5-phenyl-7H-pyrrolo[2,3-d]pyrimidin-7-yl)isonicotinonitrile] |  | 100 to 500 | 100 to 500
7 | C[C@@H]1CN(c2ncnc3c2c(-c2ccncc2)cn3-c2cc(F)ccn2)[C@@H](C)CN1C(=O)C(C)(C)O [Compound 136, 1-((2R,5S)-4-(7-(4-fluoropyridin-2-yl)-5-(pyridin-4-yl)-7H-pyrrolo[2,3-d]pyrimidin-4-yl)-2,5-dimethylpiperazin-1-yl)-2-hydroxy-2-methylpropan-1-one] |  | > 2000 | 500 to 2000
8 | C[C@@H]1CN(c2ncnc3c2c(-c2ccccc2F)cn3-c2cc(C#N)ccn2)[C@@H](C)CN1C(=O)C1(O)CCC1 [Compound 114, 2-(5-(2-fluorophenyl)-4-((2S,5R)-4-(1-hydroxycyclobutane-1-carbonyl)-2,5-dimethylpiperazin-1-yl)-7H-pyrrolo[2,3-d]pyrimidin-7-yl)isonicotinonitrile] |  | 100 to 500 | < 100
9 | CC(C)[C@H]1CN(C(=O)C(C)(C)O)CCN1c1ncnc2c1c(-c1ccccc1)cn2-c1cc(C#N)ccn1 [Compound 112, (S)-2-(4-(4-(2-hydroxy-2-methylpropanoyl)-2-isopropylpiperazin-1-yl)-5-phenyl-7H-pyrrolo[2,3-d]pyrimidin-7-yl)isonicotinonitrile] |  | 500 to 2000 | 500 to 2000

Continued, values first:

Row | EC50 (Human TRPML2) [nM] | EC50 (Human TRPML3) [nM] | EC50 (Human TRPML1) [nM] | SMILES
10 | 500 to 2000 | < 100 | 100 to 500 | C[C@@H]1CN(c2ncnc3c2c(-c2ccccc2)cn3-c2cc(C#N)ccn2)[C@@H](C)CN1C(=O)CC(O)(C(F)(F)F)C(F)(F)F [Compound 161, 2-(4-((2S,5R)-2,5-dimethyl-4-(4,4,4-trifluoro-3-hydroxy-3-(trifluoromethyl)butanoyl)piperazin-1-yl)-5-phenyl-7H-pyrrolo[2,3-d]pyrimidin-7-yl)isonicotinonitrile]
11 | > 2000 | > 2000 | 500 to 2000 | C[C@@H]1CN(c2ncnc3c2c(-c2ccncc2)cn3-c2cccc(OC(F)(F)F)c2)[C@@H](C)CN1C(=O)C(C)(C)O [Compound 148, 1-((2R,5S)-2,5-dimethyl-4-(5-(pyridin-4-yl)-7-(3-(trifluoromethoxy)phenyl)-7H-pyrrolo[2,3-d]pyrimidin-4-yl)piperazin-1-yl)-2-hydroxy-2-methylpropan-1-one]
12 | > 2000 | 500 to 2000 | 100 to 500 | C[C@@H]1CN(c2ncnc3c2c(-c2ccncc2F)cn3-c2cc(C#N)ccn2)[C@@H](C)CN1C(=O)C(C)(C)O [Compound 146, 2-(5-(3-fluoropyridin-4-yl)-4-((2S,5R)-4-(2-hydroxy-2-methylpropanoyl)-2,5-dimethylpiperazin-1-yl)-7H-pyrrolo[2,3-d]pyrimidin-7-yl)isonicotinonitrile]
13 | > 2000 | 500 to 2000 | 100 to 500 | CCOC(C)(C)C(=O)N1C[C@H](C)N(c2ncnc3c2c(-c2ccncc2)cn3-c2cc(C#N)ccn2)C[C@H]1C [Compound 171, -(4-((2S,5R)-4-(2-ethoxy-2-methylpropanoyl)-2,5-dimethylpiperazin-1-yl)-5-(pyridin-4-yl)-7H-pyrrolo[2,3-d]pyrimidin-7-yl)isonicotinonitrile]
14 |  | > 2000 | > 2000 | C[C@@H]1CN(c2nccc3c2c(-c2ccncc2)cn3-c2cccc(F)c2)[C@@H](C)CN1C(=O)C(C)(C)O [Compound 144, 1-((2R,5S)-4-(1-(3-fluorophenyl)-3-(pyridin-4-yl)-1H-pyrrolo[3,2-c]pyridin-4-yl)-2,5-dimethylpiperazin-1-yl)-2-hydroxy-2-methylpropan-1-one]
15 |  | > 2000 | > 2000 | C[C@@H]1CN(c2nccc3c2c(-c2ccncc2)cn3-c2cc(F)ccn2)[C@@H](C)CN1C(=O)C(C)(C)O [Compound 141, 1-((2R,5S)-4-(1-(4-fluoropyridin-2-yl)-3-(pyridin-4-yl)-1H-pyrrolo[3,2-c]pyridin-4-yl)-2,5-dimethylpiperazin-1-yl)-2-hydroxy-2-methylpropan-1-one]
